The supplement of paper PMC11451515

Key:
Settings in all cases: 48 h
NOMO1 [1] = test: cell viability relative to DMSO control; higher = less cytotoxic
Outline: (§1)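 In 1536-well plates, 5 μl of leukemia cells were seeded per well: 500 cells/well for NOMO1 or SEM and 1000 cells/well for P12-Ichikawa. Each line had first been adapted for at least four passages in each medium. Library compounds in DMSO were pin-dosed at 11 threefold concentrations between 47 μM and 0.79 nM, and CellTiter-Glo One luminescence was read after 48 h at 37°C. Viability is a per-plate percentage relative to DMSO wells, with cell-free wells as background.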

SEM cells [2] = test: as above
Outline: as §1

P12-Ichikawa [3] = test: as above
Outline: as §1

NOMO1 [4] = test: AUC of viability dose-response curve (% viability x log10 dose units); higher = less sensitive
Outline: (§2)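 Area under the curve was integrated by trapezoidal rule from a log-logistic fit of normalised viability, with curves exceeding full viability scaled and quality-control failures removed. The fit had four parameters over log10 doses. Viability came from CellTiter-Glo One luminescence, normalised per plate to DMSO and cell-free wells, after leukemia cells adapted to each medium (500 or 1000 cells/well, 1536-well plates) were exposed to library compounds in DMSO for 48 h at 37°C. The 11 threefold doses ran from 47 μM to 0.79 nM.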

SEM cells [5] = test: as above
Outline: as §2

P12-Ichikawa [6] = test: as above
Outline: as §2

COc1ccc(OC)c(-c2nnc3ccc(-c4ccc(OC)c(O[C@@H]5CCOC5)c4)nn23)c1
cell viability [%]
Settings	NOMO1 [1]	P12-Ichikawa [3]	SEM cells [2]
HPLM + 10% dialyzed FBS, 0.000781 µM	–	119	105
HPLM + 10% dialyzed FBS, 0.00234 µM	–	118	106
HPLM + 10% dialyzed FBS, 0.00702 µM	–	118	124
HPLM + 10% dialyzed FBS, 0.0211 µM	–	126	115
HPLM + 10% dialyzed FBS, 0.0632 µM	–	136	119
HPLM + 10% dialyzed FBS, 0.19 µM	–	117	127
HPLM + 10% dialyzed FBS, 0.569 µM	–	126	125
HPLM + 10% dialyzed FBS, 1.71 µM	–	132	123
HPLM + 10% dialyzed FBS, 5.12 µM	–	128	134
HPLM + 10% dialyzed FBS, 15.4 µM	–	124	119
HPLM + 10% dialyzed FBS, 46.1 µM	–	105	86.4
RPMI 5 mM glucose + 10% dialyzed FBS, 0.000781 µM	123	–	103
RPMI 5 mM glucose + 10% dialyzed FBS, 0.00234 µM	120	–	109
RPMI 5 mM glucose + 10% dialyzed FBS, 0.00702 µM	140	–	117
RPMI 5 mM glucose + 10% dialyzed FBS, 0.0211 µM	128	–	115
RPMI 5 mM glucose + 10% dialyzed FBS, 0.0632 µM	137	–	116
RPMI 5 mM glucose + 10% dialyzed FBS, 0.19 µM	140	–	112
RPMI 5 mM glucose + 10% dialyzed FBS, 0.569 µM	134	–	123
RPMI 5 mM glucose + 10% dialyzed FBS, 1.71 µM	147	–	131
RPMI 5 mM glucose + 10% dialyzed FBS, 5.12 µM	137	–	117
RPMI 5 mM glucose + 10% dialyzed FBS, 15.4 µM	145	–	122
RPMI 5 mM glucose + 10% dialyzed FBS, 46.1 µM	98.3	–	89.7

AUC of viability dose-response curve
Settings	NOMO1 [4]	P12-Ichikawa [6]	SEM cells [5]
HPLM + 10% dialyzed FBS	463	473	477
RPMI 5 mM glucose + 10% FBS	477	458	470
RPMI 5 mM glucose + 10% dialyzed FBS	469	466	473

CC[C@@H]1C(=O)N(C)c2cnc(Nc3ccc(C(=O)NC4CCC(N5CCN(CC6CC6)CC5)CC4)cc3OC)nc2N1C(C)C (some centres undefined)
AUC of viability dose-response curve
Settings	NOMO1 [4]	P12-Ichikawa [6]	SEM cells [5]
HPLM + 10% dialyzed FBS	276	201	199
RPMI 5 mM glucose + 10% FBS	259	225	227
RPMI 5 mM glucose + 10% dialyzed FBS	259	225	221

C=CCNc1c(O)cc2c(O)c1C[C@@H](C)C[C@H](OC)[C@H](O)[C@@H](C)/C=C(/C)[C@H](OC(N)=O)[C@@H](OC)/C=C\C=C(\C)C(=O)N2
AUC of viability dose-response curve
Settings	NOMO1 [4]	P12-Ichikawa [6]	SEM cells [5]
HPLM + 10% dialyzed FBS	419	428	336
RPMI 5 mM glucose + 10% FBS	411	398	324
RPMI 5 mM glucose + 10% dialyzed FBS	401	410	305

[O-]C(=O)C/1=N/C(=O)NC(=O)N1
cell viability [%]
Settings	NOMO1 [1]	P12-Ichikawa [3]	SEM cells [2]
HPLM + 10% dialyzed FBS, 0.000781 µM	87.7	99	95.8
HPLM + 10% dialyzed FBS, 0.00234 µM	108	97	99.2
HPLM + 10% dialyzed FBS, 0.00702 µM	92.9	98.3	93.4
HPLM + 10% dialyzed FBS, 0.0211 µM	96.9	93.3	111
HPLM + 10% dialyzed FBS, 0.0632 µM	101	102	85.1
HPLM + 10% dialyzed FBS, 0.19 µM	95.1	98	20.6
HPLM + 10% dialyzed FBS, 0.569 µM	86.3	90.1	94.8
HPLM + 10% dialyzed FBS, 1.71 µM	96.9	91.2	99.8
HPLM + 10% dialyzed FBS, 5.12 µM	85.4	81.8	100
HPLM + 10% dialyzed FBS, 15.4 µM	83.4	80.9	91.6
HPLM + 10% dialyzed FBS, 46.1 µM	88.9	83.4	84.3
RPMI 5 mM glucose + 10% FBS, 0.000781 µM	93.5	92.2	93.7
RPMI 5 mM glucose + 10% FBS, 0.00234 µM	96.8	97.2	99.6
RPMI 5 mM glucose + 10% FBS, 0.00702 µM	99.9	90	95.6
RPMI 5 mM glucose + 10% FBS, 0.0211 µM	88.9	96.6	93.6
RPMI 5 mM glucose + 10% FBS, 0.0632 µM	92.8	90.2	87.4
RPMI 5 mM glucose + 10% FBS, 0.19 µM	91.8	92.3	34.2
RPMI 5 mM glucose + 10% FBS, 0.569 µM	86.3	87.6	90.8
RPMI 5 mM glucose + 10% FBS, 1.71 µM	91.3	91.8	83.7
RPMI 5 mM glucose + 10% FBS, 5.12 µM	85.4	82.6	100
RPMI 5 mM glucose + 10% FBS, 15.4 µM	80.9	82.1	88.1
RPMI 5 mM glucose + 10% FBS, 46.1 µM	93.1	80.2	83.7
RPMI 5 mM glucose + 10% dialyzed FBS, 0.000781 µM	90.2	90.6	97.1
RPMI 5 mM glucose + 10% dialyzed FBS, 0.00234 µM	93.2	89.4	100
RPMI 5 mM glucose + 10% dialyzed FBS, 0.00702 µM	88.2	88.4	101
RPMI 5 mM glucose + 10% dialyzed FBS, 0.0211 µM	86.2	95.8	106
RPMI 5 mM glucose + 10% dialyzed FBS, 0.0632 µM	90.8	92.8	100
RPMI 5 mM glucose + 10% dialyzed FBS, 0.19 µM	92.8	81.8	34.7
RPMI 5 mM glucose + 10% dialyzed FBS, 0.569 µM	81.1	85.3	96.8
RPMI 5 mM glucose + 10% dialyzed FBS, 1.71 µM	78.5	93.2	89.8
RPMI 5 mM glucose + 10% dialyzed FBS, 5.12 µM	79.9	88	104
RPMI 5 mM glucose + 10% dialyzed FBS, 15.4 µM	77	82.4	88.7
RPMI 5 mM glucose + 10% dialyzed FBS, 46.1 µM	81.8	76.5	91.8

AUC of viability dose-response curve
Settings	NOMO1 [4]	P12-Ichikawa [6]	SEM cells [5]
HPLM + 10% dialyzed FBS	444	441	423
RPMI 5 mM glucose + 10% FBS	434	427	412
RPMI 5 mM glucose + 10% dialyzed FBS	408	420	438

CC(NC(C)(C)C)C(=O)c1cccc(Cl)c1 (centres undefined)
cell viability [%]
Settings	NOMO1 [1]	P12-Ichikawa [3]	SEM cells [2]
HPLM + 10% dialyzed FBS, 0.000781 µM	–	114	94.9
HPLM + 10% dialyzed FBS, 0.00234 µM	–	113	120
HPLM + 10% dialyzed FBS, 0.00702 µM	–	117	102
HPLM + 10% dialyzed FBS, 0.0211 µM	–	118	100
HPLM + 10% dialyzed FBS, 0.0632 µM	–	117	109
HPLM + 10% dialyzed FBS, 0.19 µM	–	111	104
HPLM + 10% dialyzed FBS, 0.569 µM	–	120	108
HPLM + 10% dialyzed FBS, 1.71 µM	–	124	64.6
HPLM + 10% dialyzed FBS, 5.12 µM	–	122	127
HPLM + 10% dialyzed FBS, 15.4 µM	–	115	46
HPLM + 10% dialyzed FBS, 46.1 µM	–	115	103
RPMI 5 mM glucose + 10% FBS, 0.000781 µM	112	–	106
RPMI 5 mM glucose + 10% FBS, 0.00234 µM	124	–	123
RPMI 5 mM glucose + 10% FBS, 0.00702 µM	115	–	117
RPMI 5 mM glucose + 10% FBS, 0.0211 µM	120	–	108
RPMI 5 mM glucose + 10% FBS, 0.0632 µM	133	–	114
RPMI 5 mM glucose + 10% FBS, 0.19 µM	127	–	119
RPMI 5 mM glucose + 10% FBS, 0.569 µM	113	–	127
RPMI 5 mM glucose + 10% FBS, 1.71 µM	115	–	73.2
RPMI 5 mM glucose + 10% FBS, 5.12 µM	119	–	125
RPMI 5 mM glucose + 10% FBS, 15.4 µM	128	–	23.1
RPMI 5 mM glucose + 10% FBS, 46.1 µM	113	–	98.9
RPMI 5 mM glucose + 10% dialyzed FBS, 0.000781 µM	–	114	99.9
RPMI 5 mM glucose + 10% dialyzed FBS, 0.00234 µM	–	127	128
RPMI 5 mM glucose + 10% dialyzed FBS, 0.00702 µM	–	119	123
RPMI 5 mM glucose + 10% dialyzed FBS, 0.0211 µM	–	123	112
RPMI 5 mM glucose + 10% dialyzed FBS, 0.0632 µM	–	123	117
RPMI 5 mM glucose + 10% dialyzed FBS, 0.19 µM	–	128	140
RPMI 5 mM glucose + 10% dialyzed FBS, 0.569 µM	–	125	139
RPMI 5 mM glucose + 10% dialyzed FBS, 1.71 µM	–	124	71.9
RPMI 5 mM glucose + 10% dialyzed FBS, 5.12 µM	–	121	135
RPMI 5 mM glucose + 10% dialyzed FBS, 15.4 µM	–	118	35.7
RPMI 5 mM glucose + 10% dialyzed FBS, 46.1 µM	–	108	126

AUC of viability dose-response curve
Settings	NOMO1 [4]	P12-Ichikawa [6]	SEM cells [5]
HPLM + 10% dialyzed FBS	448	470	444
RPMI 5 mM glucose + 10% FBS	476	473	433
RPMI 5 mM glucose + 10% dialyzed FBS	456	472	436
